pIC50, pKd: −log10 of the molar value. Residues, ends and D or L forms follow the SMILES beside them.
Key:
[1] = system: thrombin generation in human platelet poor plasma with skeletal muscle myosin; assay: Assay 2A: thrombin generation, recalcification of human platelet poor plasma + myosin; format: biochemical; conditions: human plasma, recalcification, myosin present; read-out: 2A (recalcification +myosin) IC50
Summary of the method: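 Pooled normal human platelet-poor plasma (30%) preincubated 5 min at 37° C with 50 nM skeletal muscle myosin and peptide in DMSO. Coagulation triggered with 10 mmol/L CaCl2 plus fluorogenic Z-Gly-Gly-Arg-AMC; thrombin generation followed 25 min (ex 360/em 460 nm). IC50 = peptide concentration giving 50% inhibition of thrombin generation.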

[2] = biological target: skeletal muscle myosin-supported prothrombin activation by factors Xa and Va (Homo sapiens, UniProt P00742); assay: Assay 1A: prothrombin activation by factor Xa/factor Va/myosin in purified system; format: biochemical, human factors Xa and Va; rabbit skeletal muscle myosin; conditions: FIG. 5; read-out: IC50, prothrombin activation by factor Xa/factor Va/myosin in purified system
[3] = system: skeletal muscle myosin-supported prothrombin activation by factors Xa and Va; assay: as above; format: biochemical, human factors Xa and Va; rabbit skeletal muscle myosin
[4] = system: thrombin generation in human plasma; assay: Thrombin generation assay in pooled normal human plasma (Examples 3 and 4); format: biochemical
Protocol: Thrombin generation assay in pooled human plasma: The effect of synthetic peptides on thrombin generation in pooled normal human plasma (George King Bio-medical, Inc., Overland Park, KS) was tested as described (1,11). Briefly, normal human plasma (30 μl) was mixed with CTI, followed by the addition of peptide. Then, tissue factor (TF) (Innovin) (0.5[…] pM final) containing 30 mM Ca^++ in TBSA with fluorogenic thrombin substrate solution (I-1140) (Bachem Americas, Inc., Torrance, Calif.) were added to the plasma to initiate coagulation activation. The first derivative of the time course data for substrate hydrolysis yielded the thrombin generation curve, allowing measurement of thrombin generation during the initiation, propagation and termination phases of thrombin generation and the value for peak thrombin generated.

[5] = system: thrombin generation in human whole blood; assay: Assay 4: thrombin generation in recalcified human whole blood; format: biochemical; conditions: recalcification
Protocol: In addition to purified protein system and human plasma, assays using whole blood (Assay 4) were also performed to examine anti-coagulant activities of the peptides and derivative compounds. In these assays, freshly drawn anticoagulated human whole blood (80 μL aliquot) was incubated with peptide in DMSO or DMSO alone (control) for 5 min at 37° C. Then, fluorogenic thrombin substrate solution (Z-Gly-Gly-Arg-AMC) (I-1140) with 10 mmol/L CaCl2 (final) alone was added to the reaction mixture (total 110 μl) in 96 well plate to initiate coagulation. Thrombin generation was followed continuously for 25 min using SPECTRAmax GEMINI XS fluorometer (Molecular Devices, Sunnyvale, Calif.) with excitation and emission wavelengths set at 360 and 460 nm, respectively. The first derivative of fluorescence versus time was used to produce thrombin generation curves with the correction for substrate consumption and inner filter effect. IC50 were determined using a curve fit program in Prism7.0 (GraphPad Software, San Diego, Calif.).

[6] = biological target: phospholipid-supported prothrombin activation by factors Xa and Va (Homo sapiens, UniProt P00742); assay: Assay 1C: phospholipid vesicle (PC/PS 80%/20%)-supported prothrombin activation; format: biochemical
[7] = biological target: T1, cardiac myosin-enhanced prothrombin activation by factors Xa and Va (Homo sapiens, UniProt P00742); assay: Cardiac myosin-enhanced prothrombin activation; format: biochemical; conditions: peptide 0 to 12.5 μM, cardiac myosin 2 nM, FIG. 17
T1 construct: factor Va (5 nM, final) and factor Xa (0.2 nM, final)
Protocol: Varying concentrations of peptide HC796-835 (SEQ ID NO:21), ranging from 0 to 12.5 μM, were incubated with factor Va (5 nM, final) and factor Xa (0.2 nM, final) in Tris buffered saline containing bovine serum albumin (TBSA) plus 5 mM CaCl2 at room temperature in the presence of cardiac myosin (2 nM, final). Thrombin generation was initiated by the addition of prothrombin (0.75 μM) in TB SA containing 5 mM CaCl2. The reaction was quenched by adding EDTA (10 mM final) at 10 min. The rate of thrombin formation was quantified by measuring thrombin concentration as the rate of thrombin substrate hydrolysis. 100% was the value for controls in the absence of added peptides. Each value represents the mean [±SEM] of triplicate determinations.

[8] = biological target: factor Xa (Homo sapiens, UniProt P00742); assay: Factor Xa peptide binding assay (immobilized peptide); conditions: FIG. 2C; read-out: apparent Kd, factor Xa binding to immobilized peptide
Protocol: Factor Xa Peptide Binding Assays: Peptide HC796-835 at 10 μg/mL in sodium bicarbonate (pH 9.3) was coated onto the wells of microtiter plates and then blocked with 5% fatty acid free BSA in TBS. After washing the plate with TBSA containing 5 mM CaCl2, various concentrations of factor Xa in binding buffer consisting of TBSA containing 5 mM CaCl2 were incubated in plate wells for 1 h at room temperature. Following 3 washings, bound factor Xa was detected by adding chromogenic substrate for factor Xa (S2222, Chromogenix, Franklin, Ohio). The absorbance values observed for triplicate noncoated wells lacking peptides served as nonspecific controls for binding and were subtracted from observed values for corresponding duplicate peptide-coated wells. Nonspecific binding of Factor Xa ranged from 5 to 20% of total observed binding in various experiments.
Statistical analysis: Apparent Kd values using saturation binding curve fit were performed using Prism™ 7.0 software (Graph Pad Software Inc., San Diego, Calif.).

Sequence of phospholipid-supported prothrombin activation by factors Xa and Va (P00742 41-179 limits assumed): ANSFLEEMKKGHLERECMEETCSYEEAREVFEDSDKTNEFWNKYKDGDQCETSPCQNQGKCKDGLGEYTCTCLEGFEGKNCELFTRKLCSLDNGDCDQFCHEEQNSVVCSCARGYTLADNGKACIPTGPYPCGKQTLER
Sequence of phospholipid-supported prothrombin activation by factors Xa and Va (P00742 235-488 limits assumed): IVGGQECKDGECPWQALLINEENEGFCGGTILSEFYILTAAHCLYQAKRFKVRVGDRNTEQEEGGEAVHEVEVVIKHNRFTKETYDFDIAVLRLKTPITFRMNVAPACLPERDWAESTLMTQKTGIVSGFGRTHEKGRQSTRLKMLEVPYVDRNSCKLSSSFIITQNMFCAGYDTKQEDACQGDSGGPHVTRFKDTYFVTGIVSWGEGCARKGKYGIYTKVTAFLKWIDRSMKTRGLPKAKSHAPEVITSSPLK
Sequence of skeletal muscle myosin-supported prothrombin activation by factors Xa and Va (Homo sapiens, UniProt P00742) (P00742 41-179): as the sequence (P00742 41-179 limits assumed) above
Sequence of skeletal muscle myosin-supported prothrombin activation by factors Xa and Va (Homo sapiens, UniProt P00742) (P00742 235-488): as the sequence (P00742 235-488 limits assumed) above
Sequence of skeletal muscle myosin-supported prothrombin activation by factors Xa and Va (Homo sapiens, UniProt P00742) (P12259 29-737 partner): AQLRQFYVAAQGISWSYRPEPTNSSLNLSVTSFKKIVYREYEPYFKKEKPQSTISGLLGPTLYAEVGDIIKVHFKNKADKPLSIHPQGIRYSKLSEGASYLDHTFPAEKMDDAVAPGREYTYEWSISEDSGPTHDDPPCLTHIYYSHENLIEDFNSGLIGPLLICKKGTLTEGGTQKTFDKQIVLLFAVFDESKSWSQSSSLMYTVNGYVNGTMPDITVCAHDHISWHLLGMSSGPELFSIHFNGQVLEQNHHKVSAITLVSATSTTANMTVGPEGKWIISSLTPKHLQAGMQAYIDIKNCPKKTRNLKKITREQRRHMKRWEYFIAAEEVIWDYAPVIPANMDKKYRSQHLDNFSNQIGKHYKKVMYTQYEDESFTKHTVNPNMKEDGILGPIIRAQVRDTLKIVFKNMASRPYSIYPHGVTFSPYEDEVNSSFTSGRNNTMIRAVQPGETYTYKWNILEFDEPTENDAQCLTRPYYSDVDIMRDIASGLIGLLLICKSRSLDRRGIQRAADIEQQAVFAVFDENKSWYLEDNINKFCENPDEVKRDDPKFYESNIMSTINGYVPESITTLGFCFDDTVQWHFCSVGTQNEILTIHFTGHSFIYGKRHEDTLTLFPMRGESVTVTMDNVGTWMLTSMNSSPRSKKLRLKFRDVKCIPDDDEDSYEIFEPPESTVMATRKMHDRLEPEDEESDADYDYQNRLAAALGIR
Sequence of skeletal muscle myosin-supported prothrombin activation by factors Xa and Va (Homo sapiens, UniProt P00742) (P12259 1574-2224 partner): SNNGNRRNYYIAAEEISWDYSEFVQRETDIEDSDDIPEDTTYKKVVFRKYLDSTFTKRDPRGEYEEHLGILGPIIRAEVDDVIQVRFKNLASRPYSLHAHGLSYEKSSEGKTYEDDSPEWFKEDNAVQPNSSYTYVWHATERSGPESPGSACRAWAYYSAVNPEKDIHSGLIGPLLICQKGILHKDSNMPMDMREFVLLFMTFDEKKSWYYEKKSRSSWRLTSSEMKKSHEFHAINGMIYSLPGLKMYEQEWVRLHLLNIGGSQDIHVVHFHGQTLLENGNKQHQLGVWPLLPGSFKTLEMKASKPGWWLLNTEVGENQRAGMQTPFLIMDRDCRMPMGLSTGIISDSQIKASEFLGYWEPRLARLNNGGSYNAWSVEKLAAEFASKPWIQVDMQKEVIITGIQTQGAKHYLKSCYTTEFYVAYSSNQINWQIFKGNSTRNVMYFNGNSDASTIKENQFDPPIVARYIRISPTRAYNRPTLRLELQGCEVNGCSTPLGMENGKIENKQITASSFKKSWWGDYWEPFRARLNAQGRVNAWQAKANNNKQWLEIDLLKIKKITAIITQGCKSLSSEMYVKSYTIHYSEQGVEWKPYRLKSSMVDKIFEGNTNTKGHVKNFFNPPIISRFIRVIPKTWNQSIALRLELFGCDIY
T1 sequence (P00742 41-179 limits assumed): as the sequence (P00742 41-179 limits assumed) above
T1 sequence (P00742 235-488 limits assumed): as the sequence (P00742 235-488 limits assumed) above

`CC[C@H](C)[C@H](NC(=O)[C@H](C)NC(=O)[C@H](CCC(=O)O)NC(=O)[C@H](CCCNC(=N)N)NC(=O)[C@H](CCCNC(=N)N)NC(=O)[C@H](CCC(=O)O)NC(=O)[C@@H](NC(=O)[C@H](CCSC)NC(=O)[C@H](CCCNC(=N)N)NC(=O)[C@H](CCC(N)=O)NC(=O)[C@H](Cc1ccc(O)cc1)NC(=O)[C@H](CCC(=O)O)NC(=O)[C@@H](NC(=O)[C@H](CCCNC(=N)N)NC(=O)[C@H](C)NC(=O)[C@H](CC(C)C)NC(=O)[C@H](Cc1ccccc1)NC(=O)CNC(=O)[C@H](CCCNC(=N)N)NC(=O)[C@H](CS)NC(=O)[C@H](CCCNC(=N)N)NC(=O)[C@H](C)N)C(C)C)C(C)C)C(=O)N[C@@H](Cc1ccccc1)C(=O)N[C@@H](CS)C(=O)N[C@H](C(=O)N[C@@H](CCC(N)=O)C(=O)N[C@@H](Cc1ccc(O)cc1)C(=O)N[C@@H](CC(N)=O)C(=O)N[C@H](C(=O)N[C@@H](CCCNC(=N)N)C(=O)N[C@@H](CO)C(=O)N[C@@H](Cc1ccccc1)C(=O)N[C@@H](CCSC)C(=O)N[C@@H](CC(N)=O)C(=O)N[C@H](C(=O)N[C@@H](CCCCN)C(=O)N[C@@H](Cc1c[nH]cn1)C(=O)N[C@@H](Cc1c[nH]c2ccccc12)C(=O)N1CCC[C@H]1C(=O)N[C@@H](Cc1c[nH]c2ccccc12)C(N)=O)C(C)C)[C@@H](C)CC)[C@@H](C)CC` [HC796-835] (H-ARCRGFLARVEYQRMVERREAIFCIQYNIRSFMNVKHWPW-NH2) showed a pIC50 [1] of 5.42, a pIC50 [2] of 5.89 and a pIC50 ([3]; dose-dependency assays, FIG. 2A, myosin 2 nM, read-out: IC50, inhibition of myosin-supported prothrombin activation) of 5.92. The “inhibition of myosin-supported prothrombin activation at 5 μM” value ([3]; peptide 5 μM, FIG. 1A) was “inhibitory, to varying degrees”, the “inhibition of myosin-supported prothrombin activation at 100 μM” value ([3]; peptide 100 μM, FIG. 1A) was “inhibited” and the pIC50 ([4]; FIG. 3B, peptide 0-25 μM, read-out: IC50, inhibition of thrombin generation in plasma) was ~5.26. The “inhibition of thrombin generation in human plasma” value ([4]; screened at 25 μM, FIG. 3A) was “significantly inhibited”, the “4 (recalcification) IC50” value [5] was “No activity” and the “inhibitory effects on phospholipid-supported prothrombin activation” value ([6]; compared with effects on myosin-supported prothrombin activation) was “not apparent”. The “1C (+phospholipid)” value ([6]; purified system, phospholipid vesicles) was “No activity”, the “inhibition of cardiac myosin-enhanced prothrombin activation” value [7] was “inhibition” and the pKd [8] was 5.85.

From patent publication US20220340629A1, “Myosin Derived Peptides and Related Compounds with Anticoagulant Activities” (THE SCRIPPS RESEARCH INSTITUTE, priority 0001, published 2022)
